Type in all cases: in vivo
Assay [1] concerns perception of the sweet taste of an aqueous solution of sweetener in humans. Kind of assay: Two-alternative forced choice "sip and spit" method (2AFC). The note with it: for Fold increase in perceived sweetness: positive control conc. / test sample conc. The method, then: The taste test panelists used in the Examples 1-3 were selected using a sensory acuity screening program. Candidate taste panelists were recruited, with prescreening and personal interviews, and were assessed and for their ability to detect, recognize and differentiate basic taste attributes or mixtures thereof as part of a standardized acuity test. This included basic tastes of sweet, sour, salty, bitter and umami, as well as having the capacity to focus on specific aspects of sensory character such as ranking the various tastes perceived and identifying the basic tastes presented at threshold levels.
The effect of the test compounds on the perception of the sweet taste of an aqueous solution of sweetener in humans was evaluated using a two-alternative forced choice “sip and spit” method (2AFC).
(§1) The aqueous sweetener solutions were prepared by adding, fructose, sucrose or glucose (by weight), to water to achieve the desired concentration.
Compounds were first prepared as a 500-fold concentrated stock solution in 100% ethanol. These concentrated stocks were then added to the aqueous sweetener solutions to result in a final ethanol concentration of 0.2%. The control (positive and negative) samples were also normalized to 0.2% ethanol. This level of ethanol was not seen to contribute any perceived sweetness.
The 2AFC test used for compound evaluation was a blind and randomized test where taste panelists (n=15) evaluate a pair of sweetener solutions at a time one sample contains aqueous sweetener solution plus compound (i.e. test) while the other contains aqueous sweetener solution at higher concentration without compound (i.e. positive control). Each test sample was compared against a positive control. For example, if the test sample contained 1× sweetener concentration with compound (e.g. 5% sucrose with compound), the positive control sample contained a 1.1× sweetener concentration (e.g. 5.5% sucrose without compound).
Panelists were instructed not to eat or drink (except water) for at least 1 h before the test. During the test, panelists were instructed to sip each sample, swirl it around their mouth and then expectorate. After tasting each sample in the pair, panelists were instructed to record the sample that is “sweeter” in taste. Panelists cleansed their palates by rinsing with water, eating a cracker and waiting for an interval of about 5 minutes. Each pair was tasted twice. All samples were tasted at ambient temperatures. Data were analyzed using binomial probabilities.
Approximate levels of sweetness enhancement in column 5 of Table 2 were calculated as follows:
Approximate levels of sweetness enhancement=Sweetener concentration of positive control surpassed by the test sample, divided by sweetener concentration for compound-containing sample (e.g. 1.15×=5.75% sucrose/5% sucrose).

For assay [2], the system named is perception of the sweet taste in humans. Kind of assay: Trained descriptive analysis (DA) panel, sweet attribute. The note with it: 35 ppm; for compound effects beyond the additive effect of inherent sweetness: 4% fructose and 8% sucrose; for perceived sweetness compared to control sweetener solutions (FIG. 2): aqueous fructose and sucrose solutions at pH 3; for perceived sweetness compared to control sweetener solutions (FIG. 2) / perceived sweetness compared to control sweetener solutions (FIG. 1): ** p<0.01; for perceived sweetness compared to control sweetener solutions (FIG. 1): aqueous fructose and sucrose solutions at pH 7. How it is done:
The effect of the test compounds on the perception of the sweet taste in an aqueous environment, in the absence or presence of carbohydrate sweeteners, was evaluated using a descriptive analysis methodology with a group of trained panelists, as follows.
Candidate panelists were recruited, with prescreening and personal interviews, and were assessed for their ability to detect, recognize and differentiate basic taste attributes or mixtures thereof as part of a standardized acuity test. These candidate panelists were also assessed for their innate ability to identify flavors, and to rank on intensity scales. Other senses such as smell and vision were also included as part of the assessment. Candidates also were screened for their ability to use the language to describe and articulate ideas.
Selected candidates proceeded to training as a group in three phases: (1) Lexicon development, (2) Concept alignment, and (3) Scaling descriptors. During lexicon development, panelists evaluated products appropriate for use in the study to generate and align on terms describing the flavor, taste, aromatic, trigeminal, and temporal attributes. During concept alignment, the panel evaluated the products mentioned above to clarify and confirm the attributes that were generated during lexicon development using reference standards that appropriately define each attribute; these are either physical references (e.g. sucrose solutions) or verbal descriptions (e.g. overall flavor). Product terms and concepts were validated during this portion of the study.
In the last phase, scaling descriptors, the panel participated in a series of exercises focused on ordering and ranking samples according to relative attribute intensity, measuring attribute intensity using a defined length of line scale. Whenever possible, different levels or concentration of references were used as anchors to facilitate use of the scale. Panelists were provided with blinded references at this stage to evaluate their understanding and perception of the scale.
The panel used in this example was trained to reference sweet attributes in an absolute manner, such that a particular concentration of sweetener is always measured by the panelists at the same point using a 15 cm line scale where each cm represents a 1% increase in sucrose to cover the range of 0% to 15% sucrose. For the rest of the attributes, the panel was trained using a hybrid approach between descriptive analysis methods (e.g. quantitative descriptive analysis, the sensory spectrum, etc.) well-known to those skilled in the art.
The trained panel was then used for a descriptive analysis assessment for Compounds 1, 2 and 3 in aqueous solutions at pH 3 and pH 7. Each of the three compounds was tested at 35 ppm in sucrose and fructose sweeteners. In addition, Compounds 1, 2 and 3 were also examined in water at pH 3 and pH 7 to assess for any inherent sweetness.
The aqueous sweetener solutions were prepared by adding, fructose or sucrose (by weight), to water to achieve the desired concentration. Aqueous sucrose solutions at pH 3 were buffered using a final concentration of 0.096% Citric Acid plus 0.036% Sodium Citrate while aqueous fructose solutions at pH 3 were buffered using a final concentration of 0.06% Citric Acid and 0.0225% Sodium Citrate.
Compounds were first prepared as a […] concentrated stock solution in 100% ethanol. These concentrated stocks were then added to the aqueous sweetener solutions to result in a final ethanol concentration of 0.2%. In addition to compounds, a solubilizing agent at a final concentration of 0.02% was added to the aqueous sweetener solutions. Control samples were also balanced with 0.2% ethanol and in certain cases 0.02% solubilizing agent.
Both control (aqueous sweetener solutions without compound) and variant (aqueous sweetener solutions with compound) samples were blinded and randomized (by sweetener and pH blocks). […]

The subject of assay [3] is perception of the sweet taste of an aqueous solution of sweetener in humans. Kind of assay: Ranking "sip and spit" assessment of sweetness perception (R index). The note with it: test sample 5% sucrose; compound 10 ppm; vs negative control; R index >=60 = significantly different. The method, then:
The effect of the test compounds on the perception of the sweet taste of an aqueous solution of sweetener in humans was evaluated using a ranking “sip and spit” method.
as §1
Compounds were first prepared as a 500-fold concentrated stock solution in 100% ethanol. These concentrated stocks were then added to the aqueous sweetener solutions to result in a final ethanol concentration of 0.2%. The control (positive and negative) samples were also normalized to 0.2% ethanol.
In the ranking test used for compound evaluation, taste panelists (n=15), rank samples in increasing order of sweetness. One set, comprising of 6 samples, was presented to each panelists at a given time and are asked to rank them in order of increasing sweetness.
Panelists were instructed not to eat or drink (except water) for at least 1 h before the test. During the test, panelists were instructed to sip each sample, swirl it around their mouth and then expectorate. After tasting each set, panelists were instructed to rank the 6 samples within the set from least sweet to most sweet. Where rank 1—is lowest in sweetness and rank 6—is highest in sweetness. Panelists cleansed their palates by rinsing with water, eating a cracker and waiting for an interval of 10 minutes. […]

The mark [4] stands for this setting: test sample 4% fructose, compound 25 ppm.
Where [5] appears, read: test sample 4% fructose, positive control fructose, compound 25 ppm.
Where [6] appears, read: test sample 4% fructose, positive control fructose, compound 20 ppm.

The structures appear in SMILES notation.

For the compound `COc1ccc([C@@H]2CC(=O)c3c(O)cccc3O2)cc1O` (single isomer, unassigned) [Compound 2], the “Fold increase in perceived sweetness” value in assay [1] (setting [4]) was over 1.20X; in assay [1] (test sample 5% sucrose, compound 15, 25 ppm), over 1.20X; in assay [1] (test sample 6.5% glucose, compound 10, 20, 25 ppm), over 1.15X. Moreover, the “Sweetener Concentration of positive control surpassed by test sample” value (shortened to “Sweetener Concentration”) is over 4.8% in assay [1] (setting [5]); over 6% in assay [1] (test sample 5% sucrose, positive control sucrose, compound 15, 25 ppm); over 7.48% in assay [1] (test sample 6.5% glucose, positive control glucose, compound 10, 20, 25 ppm). Moreover, the “compound effects beyond the additive effect of inherent sweetness” value in assay [2] (pH 3, Table 7 vs Table 5) was “super-additive effects”; in assay [2] (pH 7, Table 6 vs Table 4) it was “super-additive effects”. The “perceived sweetness compared to control sweetener solutions (FIG. 2)” value in assay [2] is listed as “significant increase in perceived sweetness”. Further, the “perceived sweetness compared to control sweetener solutions (FIG. 1)” value in assay [2] was “significant increase in perceived sweetness”.
With `COc1ccc([C@H]2CC(=O)c3c(O)cccc3O2)cc1O` (single isomer, unassigned) [Compound 3], the “Fold increase in perceived sweetness” value was over 1.25X in assay [1] (setting [4]); over 1.20X in assay [1] (test sample 5% sucrose, compound 15 ppm); over 1.20X in assay [1] (test sample 6.5% glucose, compound 25 ppm). Besides, the “Sweetener Concentration” value in assay [1] (setting [5]) is recorded as over 5%; in assay [1] (test sample 5% sucrose, positive control sucrose, compound 15 ppm), over 6%; in assay [1] (test sample 6.5% glucose, positive control glucose, compound 25 ppm) it was over 7.8%. In addition, the “compound effects beyond the additive effect of inherent sweetness” value in assay [2] (pH 3, Table 7 vs Table 5) was “super-additive effects”; in assay [2] (pH 7, Table 6 vs Table 4), “super-additive effects”. Also, the “perceived sweetness compared to control sweetener solutions (FIG. 2)” value in assay [2] is reported as “significant increase in perceived sweetness”. In assay [2], the “perceived sweetness compared to control sweetener solutions (FIG. 1)” value is “significant increase in perceived sweetness”.
Turning to `COc1ccc(C2CC(=O)c3c(O)cc(OCCCC(=O)O)cc3O2)cc1O` (centres unmarked) [Compound 4, 4-((5-hydroxy-2-(3-hydroxy-4-methoxyphenyl)-4-oxochroman-7-yl)oxy)butanoic acid], the “Sweetener Concentration” value in assay [1] (setting [6]) is given as over 4.4%.
`CCCOc1ccc(C2CC(=O)c3c(O)cc(O)cc3O2)cc1O` (centres unmarked) [Compound 5, 5,7-dihydroxy-2-(3-hydroxy-4-propoxyphenyl)chroman-4-one]: the “Sweetener Concentration” value in assay [1] (setting [6]) is given as over 4.4%.
For `O=C1c2c(O)cc(O)cc2OC(c2ccc(O)c(O)c2)C1O` (centres unmarked) [Compound 11, 2-(3,4-dihydroxyphenyl)-3,5,7-trihydroxychroman-4-one], the “R Index Score” value in assay [3] turned out to be 64.
For the compound `COc1ccc(C2CC(=O)c3c(O)cc(OCCCS(=O)(=O)[O-])cc3O2)cc1O.[K+]` (centres unmarked) [Compound 14, 3-((5-hydroxy-2-(3-hydroxy-4-methoxyphenyl)-4-oxochroman-7-yl)oxy)propane-1-sulfonic acid potassium salt], the “Fold increase in perceived sweetness” value in assay [1] (test sample 4% fructose, compound 20 ppm) was over 1.1X. In addition, the “Sweetener Concentration” value in assay [1] (setting [6]) is listed as over 4.4%.
For the compound `COc1ccc(C2CC(=O)c3c(O)cc(F)cc3O2)cc1O` (centres unmarked) [Compound 15, 7-fluoro-5-hydroxy-2-(3-hydroxy-4-methoxyphenyl)chroman-4-one], the “Sweetener Concentration” value in assay [1] (setting [6]) is on record as over 4.4%.

Source of the values: patent US20150050410A1, “COMPOUNDS, COMPOSITIONS, AND METHODS FOR MODULATING SWEET TASTE” (Chromocell Corporation, priority 2013, published 2015).
